We go through three compounds from US4440764A, “Water soluble esters of steroid-oxazole and pharmaceutical compositions containing them” (Gruppo Lepetit S.p.A., priority 1980, dated 1984).

Type in all cases: in vivo
One series relates to anaphylactic shock. Nature of the series: protection against anaphylactic shock in mice. The following applies: Mus musculus, ip. From the text:
(§1) In the protection against anaphylactic shock and endotoxin shock in mice, the following results have been obtained: […]

The next series deals with endotoxin shock. Nature of the series: protection against endotoxin shock in mice. To be noted: Mus musculus, sc.
Text: as §1

For a further series, the system named is Nystatin-induced oedema. Briefly: Nystatin-induced oedema test (i.v.). The following applies: antiinflammatory equivalent doses, at the 48th, 72nd, and 96th hours, vs prednisolone hemisuccinate and hydrocortisone hemisuccinate.
In series [1] the test system is equilibrium sodium-potassium. Briefly: mineralocorticoid effects in the adrenalectomized rats. To be noted: at doses which provide the same pharmacological effect, vs prednisolone or hydrocortisone hemisuccinate.
Series [2] has as its system carrageenin-induced oedema. Nature of the series: carrageenin-induced oedema test in rats (i.v.).
Series [3] relates to hepatic neoglycogenetic activity. Briefly: hepatic neoglycogenetic activity in adrenalectomized rats.
Setting [4] is: relative to hydrocortisone hemisuccinate.
[5] abbreviates: relative to prednisolone hemisuccinate.

The structures appear in SMILES notation.

`CC12CCC(=O)C=C1CCC1C2C(O)CC2(C)C1CCC2(O)C(=O)COC(=O)CCC(=O)O` (stereo not drawn) [Hydrocortisone hemisuccinate, hydrocortisone hemisuccinate]: the ED50 with anaphylactic shock came out at 143 mg/kg; with endotoxin shock, 180 mg/kg.

`C[C@]12C=CC(=O)C=C1CC[C@@H]1[C@@H]2[C@@H](O)C[C@@]2(C)[C@H]1CC[C@]2(O)C(=O)COC(=O)CCC(=O)O` [Prednisolone hemisuccinate, prednisolone hemisuccinate]: the ED50 was determined as 35.5 mg/kg with anaphylactic shock and 50.5 mg/kg with endotoxin shock.

As for `CC1=NC2(C(=O)COC(=O)CCC(=O)O)C(CC3C4CCC5=CC(=O)C=CC5(C)C4C(O)CC32C)O1` (stereo not drawn) [Deflazacort hemisuccinate, 11β,21-dihydroxy-2'-methyl-5'H-pregna-1,4-dieno[17,16-d]oxazole-3,20-dione-21-hemisuccinate], the “duration of antiphlogistic activity versus reference compounds” value with Nystatin-induced oedema is listed as “longer lasting antiphlogistic activity than the reference compounds”. Also, the “mineralocorticoid effects (effect on equilibrium sodium-potassium)” value in series [1] was “affects the equilibrium sodium-potassium much less than prednisolone or hydrocortisone hemisuccinate”. Also, the “times more active than hydrocortisone hemisuccinate” value in series [2] (setting [4]) came out at 142 times. Further, the “times more active than prednisolone hemisuccinate” value in series [2] (setting [5]) came out at 15 times. The ED50 in the series with anaphylactic shock amounted to 22 mg/kg; in the series on endotoxin shock, 31 mg/kg. Besides, the “hepatic neoglycogenetic activity, times more potent than hydrocortisone hemisuccinate” value in series [3] (setting [4]) is on record as about 40 times. For the same compound, the “hepatic neoglycogenetic activity, times more potent than prednisolone hemisuccinate” value in series [3] (setting [5]) is reported as “about 5 times”.

The term ED50 denotes the midpoint of the dose-response relation.
